Measured values reported in PubChem BioAssay (NCI).
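Growth conditions: 96-well plates. Treatment: test compound, 48 hours, 5 concentrations. Analysis: linear interpolation between bracketing concentrations; unreached endpoints set to highest concentration. TGI is the concentration that stops growth completely.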

Key:
Assay in all cases: growth of human tumour cells (NCI), 48 h
[1] = system: SW-620 colon
[2] = system: ACHN renal
[3] = system: OVCAR-8 ovarian
[4] = system: U251 CNS
[5] = system: SK-MEL-2 melanoma
[6] = system: HCC-2998 colon
[7] = system: HCT-15 colon
[8] = system: NCI/ADR-RES ovarian
[9] = system: K-562 leukemia
[10] = system: NCI-H23 lung
[11] = system: HT29 colon
[12] = system: KM12 colon
[13] = system: SK-OV-3 ovarian
[14] = system: RXF 393 renal
[15] = system: M14 melanoma
[16] = system: MDA-N
[17] = system: PC-3 prostate
[18] = system: MCF7 breast
[19] = system: NCI-H522 lung
[20] = system: NCI-H460 lung
[21] = system: COLO 205 colon
[22] = system: T-47D breast
[23] = system: DU-145 prostate
[24] = system: OVCAR-4 ovarian
[25] = system: LOX IMVI melanoma
[26] = system: CAKI-1 renal
[27] = system: SF-268 CNS
[28] = system: HCT-116 colon
[29] = system: HOP-62 NSCLC
[30] = system: UO-31 renal
[31] = system: OVCAR-3 ovarian
[32] = system: NCI-H226 lung
[33] = system: RPMI-8226 leukemia
[34] = system: SNB-19 CNS
[35] = system: OVCAR-5 ovarian
[36] = system: HL-60(TB) leukemia
[37] = system: SF-295 CNS
[38] = system: SK-MEL-5 melanoma
[39] = system: SNB-75 CNS
[40] = system: SF-539 CNS
[41] = system: A549 NSCLC
[42] = system: BT-549 breast
[43] = system: HOP-92 NSCLC
[44] = system: MDA-MB-435
[45] = system: 786-0 renal
[46] = system: HS 578T breast
[47] = system: SN12C renal
[48] = system: SK-MEL-28 melanoma
[49] = system: TK-10 renal
[50] = system: A498 renal
[51] = system: SR leukemia
[52] = system: IGROV1 ovarian
[53] = system: EKVX NSCLC
[54] = system: CCRF-CEM leukemia
[55] = system: MDA-MB-231 breast
[56] = system: UACC-257 melanoma
[57] = system: MOLT-4 leukemia
[58] = system: UACC-62 melanoma

C[C@H](CCC(=O)O[C@@H]1CC[C@@]2(C)C(CC[C@H]3[C@@H]4CC[C@H]([C@H](C)CCc5nc6ccccc6[nH]5)[C@@]4(C)CC[C@@H]32)C1)[C@H]1CC[C@H]2[C@@H]3CCC4C[C@H](O)CC[C@]4(C)[C@H]3CC[C@]12C (stereo partly drawn)
TGI [1]: > 100 µM | TGI [2]: > 100 µM | TGI [3]: > 100 µM | TGI [4]: > 100 µM | TGI [5]: > 100 µM | TGI [6]: > 100 µM | TGI [7]: > 100 µM | TGI [8]: > 100 µM | TGI [9]: > 100 µM | TGI [10]: > 100 µM | TGI [11]: > 100 µM | TGI [12]: > 100 µM | TGI [13]: > 100 µM | TGI [14]: > 100 µM | TGI [15]: > 100 µM | TGI [16]: > 100 µM | TGI [17]: > 100 µM | TGI [18]: > 100 µM | TGI [19]: > 100 µM | TGI [20]: > 100 µM | TGI [21]: > 100 µM | TGI [22]: > 100 µM | TGI [23]: > 100 µM | TGI [24]: > 100 µM | TGI [25]: > 100 µM | TGI [26]: > 100 µM | TGI [27]: > 100 µM | TGI [28]: > 100 µM | TGI [29]: > 100 µM | TGI [30]: > 100 µM | TGI [31]: > 100 µM | TGI [32]: > 100 µM | TGI [33]: > 100 µM | TGI [34]: 61.2 µM | TGI [35]: > 100 µM | TGI [36]: > 100 µM | TGI [37]: > 100 µM | TGI [38]: > 100 µM | TGI [39]: > 100 µM | TGI [40]: > 100 µM | TGI [41]: > 100 µM | TGI [42]: > 100 µM | TGI [43]: > 100 µM | TGI [44]: > 100 µM | TGI [45]: > 100 µM | TGI [46]: > 100 µM | TGI [47]: > 100 µM | TGI [48]: > 100 µM | TGI [49]: > 100 µM | TGI [50]: > 100 µM | TGI [51]: > 100 µM | TGI [52]: > 100 µM | TGI [53]: > 100 µM | TGI [54]: > 100 µM | TGI [55]: > 100 µM | TGI [56]: > 100 µM | TGI [57]: > 100 µM | TGI [58]: > 100 µM
